One data set relates to LPP+/− rats. The following applies: rat, in vivo. How it is done:
LPP rats were treated with MB either by daily i.p. injections for 3 or 5 consecutive days, or twice daily i.p. injections for 8 consecutive days at a dose of 150 mg/kg bw or 4 days via the drinking water with D-PA at a dose of 100 mg/kg bw/d or TETA at 480 mg/kg bw/d, respectively (Togashi et al., Hepatology 15, 82-87 (1992)). Based on a mean copper content of 250 μg/g w.w. in Atp7b−/− rat livers at the age of treatment start (Zischka et al., log. cit.), a LPP−/− rat liver of 8 g w.w. contains around 31.5 μmol copper. Single MB doses were chosen equimolar to this copper amount. […] Assuming 40 ml water intake per day for a rat weighing 250 g this translates to a dose of 480 mg/kg bw/d. With respect to the mean liver copper content in LPP−/− rats aged 85 days, the molar ratios of the chelators applied was MB 1:D-PA 4.3:TETA 17.4, respectively. For the intravenous MB application (150 mg/kg bw), catheters connected to a PinPort™ (Instech Laboratories, Inc., USA) were inserted in the femoral vein of the rat, fixed with non-absorbable sutures and subcutaneously tunneled and exteriorized through a skin incision made between the shoulders.

The test system of data set [1] is WD patient-derived hepatocyte like (HLC) cells. Put plainly: De-coppering of WD patient-derived hepatocyte like cells (HLC). The note with it: Cu-histidin 15 μM 24 h, then MB 300 μM 24 h. Type of data set: cell-based, human. As for the experimental part: Urinary epithelial cells were pelleted at 400×g for 10 min from freshly donated mid-stream urine (Zhou et al., J Am Soc Nephrol 22, 1221-1228 (2011)). Cells were cultured in urinary cell medium (UCM) consisting of Dulbecco's modified Eagle medium/Ham's F-12 culture medium (DMEM/F12, Lonza) supplemented with 10% fetal bovine serum (FBS, PAA), 0.1 mM non-essential amino acids (NEAA, Sigma), 0.1 mM β-mercaptoethanol, 1 mM GlutaMAX (Life Technologies), and SingleQuot Kit CC-4127 REGM (Lonza). Urinary epithelial cells were reprogrammed by nucleofection of episomal expression vectors pCXLE-hOCT3/4-shp53-F, pCXLE-hSK, and pCXLE-hUL (Addgene) using the Amaxa Basic Nucleofector Kit (Lonza, VPI-1005). iPS cells (iPSCs) were maintained on Matrigel-coated plates in mTeSR cell culture medium and dissociated with 1 U/ml dispase (Stem Cell Technologies) into small clusters and subcultured every 5 to 7 days. WD iPSCs were differentiated into hepatocyte-like cells (HLCs) by a modification of the method reported previously (Basma et al., Gastroenterology 136, 990-999 (2009)). […] iPSCs were plated in single cells onto 6-well plates precoated with Matrigel. […]
HLCs were incubated at day 14 with Cu-histidin (15 μM) for 24 h in a 6 well plate. […] After 24 h incubation, washed cells were collected, counted and their copper content assessed.

Data set [2] deals with HepG2 cells. Description: Cellular de-coppering of HepG2 cells (ICP-OES). Format: cell-based. How it is done:
(§1) HepG2 cells were kept in MEM with 2% FCS. […] Therefore, Zn-MB, generated by preparing a 20 mM MB solution and adding an equimolar concentration of Zn solution under pH control, was used in cell culture experiments.
To determine the cellular de-coppering efficiency of MB, cells were pretreated with 2% FCS containing medium or 15 μM copper-histidine for 24 h and subsequently subjected to a 24 h treatment with 500 μM MB. Thereafter, cells were washed two times and counted. Copper in 2.5×10^6 cells was determined by ICP-OES after wet ashing of samples with 65% nitric acid.
Copper in liver homogenates, cell lysates and mitochondrial preparations were analyzed by ICP-OES (Ciros Vision, SPECTRO Analytical Instruments GmbH) after wet ashing of samples with 65% nitric acid (Zischka et al., log. cit.).

For the next data set, the system named is LPP−/− mitochondria. Description: Chelator treatment of freshly isolated copper burdened LPP−/− mitochondria (copper extraction). Also on record: species or system rat. The following applies: 2 mM each, 30 min incubation.
A further data set deals with diseased LPP−/− rats. Put plainly: Acute rescue regimen in diseased LPP−/− rats. Format: in vivo, rat.
A short description of data set [3]: Stability analysis of MB by absorbance of oxazolone rings. Type of data set: physicochemical. The note with it: time and/or temperature. As for the experimental part:
(C) Stability analysis of metal free MB and Zn-loaded MB followed by absorbance measurements of their two metastable oxazolone rings (OxaA/ZnA at 394 nm and OxaB/ZnB at 340 nm)^57 at 37° C.
as §1

Data set [4] addresses mitochondrial respiratory complex IV (Rattus norvegicus, UniProt P00406+P05503).
The test system of data set [5] is HepG2 cells. Description: Cellular MB uptake by competitive ELISA. The following applies: 2 and 24 hours. Type of data set: in vitro ADME. How it is done:
Cellular MB uptake was determined from cell lysates incubated for 2 or 24 h with MB at different concentrations by a competitive ELISA using a monoclonal anti-MB antibody.
Competitive ELISA. All 86 TCS were diluted 1:10 with buffer (PBS, 5% FCS, 0.01% sodium acide). 50 μl of each TCS were pre-incubated with 50 μl MB solution (1000 ng/ml in buffer) or buffer overnight. The experiments were run in duplicates. 50 μl of the pre-incubated sample were added to ELISA plates coated with MB as used for screening. After 10 min, the plates were washed, bound antibodies against MB were detected with HRP conjugated mAbs against the rat IgG isotypes and HRP was visualized with TMB. MAbs that recognized free MB (no signal when pre-incubated with MB, positive signal in the buffer control) were further analyzed in a serial dilution of MB (1000 ng/ml to 2 ng/ml). The four mAbs that best recognized free MB were established (10610, 12D9, 18H7, 21G5, all of rat IgG2a subclass). To increase the sensitivity of the test system, the TCS of the established hybridomas were titrated on ELISA plates coated with MB. The titer of […] was far better (1:1260) than of 12D9 (1:320), 18H7 (1:10) and 21G5 (1:320).
For the test system 10610 was used at a dilution of 1:500 and the pre-incubation time reduced to one hour.
(In general: An ELISA detects its analyte on a solid surface through an enzyme-linked reagent.)

“Also recorded” adds a separate entry of the source. Numbered stars: 1 amine (or outer) side, 2 acyl side, 3 side chain; on linkers, the order of the positions; unused ones are H or OH. Bridge positions count the residues as written; N and C are the ends. Square brackets hold non-standard residues; d marks the D form. Peptide text beside a SMILES is read from it. * marks the point of attachment. X2 = O=C1OC(C2CCCN2[*:1])=NC1C(=S)NC(CO)C(=O)[*:2]; X1 = CC(C)CC(=O)C1=NC(C(=S)NCC(=O)*)C(=O)O1

Sequence of mitochondrial respiratory complex IV (P00406 whole entry, other chains not shown): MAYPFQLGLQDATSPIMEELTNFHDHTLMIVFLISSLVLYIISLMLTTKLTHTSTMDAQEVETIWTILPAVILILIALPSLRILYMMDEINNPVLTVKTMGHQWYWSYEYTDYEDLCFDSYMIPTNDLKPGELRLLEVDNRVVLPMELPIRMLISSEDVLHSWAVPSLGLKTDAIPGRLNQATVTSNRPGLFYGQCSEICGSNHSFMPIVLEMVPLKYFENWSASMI

Take `CSCCC(NC(=O)C1CSSCC(NC(=O)C(CO)NC(=O)CNC(=S)C2N=C(C(=O)CC(C)C)OC2=O)C(=O)NC(Cc2ccc(O)cc2)C(=O)N2CCCC2C2=NC(C(=O)O2)C(=S)NC(CO)C(=O)N1)C(=O)O` (stereo not drawn) [MB] (X1-SCY[X2]CM-OH; disulfide 2-5; configuration not given here): in the data set on LPP+/− rats, the “body weight, liver copper concentration, serum AST and bilirubin” value is listed as “remained within the physiological range”; the signs of toxicity entry is given as “did not exhibit any signs of toxicity”. For the same compound, the “de-coppering of copper preloaded HLC” value in data set [1] was “Comparable copper depletions; also recorded: highly efficiently de-coppered”. The “de-coppering of copper preloaded HepG2 cells” value in the data set on HepG2 cells [2] (24 h MB treated vs untreated control) is “highly efficiently de-coppered”. In the data set with HepG2 cells [2] (basic copper load, 24 h 500 μM MB (Zn-MB used in cell culture)), the “reduction of copper in HepG2 cells” value was determined as 50%. For the same compound, the “reduction of copper in HepG2 cells” value in the data set with HepG2 cells [2] (preloaded with 15 μM copper-histidine 24 h, then 24 h 500 μM MB) was determined as 50%. Besides, the “copper associated with LPP−/− mitochondria” value in the data set on LPP−/− mitochondria is reported as “rapidly decreased copper”. In addition, the body weight result in the data set on diseased LPP−/− rats (16 i.p. injections) is “regained weight”. For the same compound, in the data set on diseased LPP−/− rats (end of treatment regimen), the copper values entry is “exceptionally low copper values”; the “serum AST and bilirubin” value is “normal serum AST and bilirubin”. The weight regained in the data set with diseased LPP−/− rats (moribund animal no. 3) amounted to 29%. The survival entry with diseased LPP−/− rats (two daily MB i.p. injections for one week (16 in total), four rats) is “All animals survived”. Besides, the decay entry in data set [3] is given as “susceptible to time- and/or temperature-dependent decay”. Further, the “toxicity to copper-dependent respiratory complex IV activity” value in data set [4] is recorded as “significantly less toxic than TTM”. Also, the “intracellular MB uptake” value in the data set with HepG2 cells [5] is reported as “taken up in a dose dependent manner”.

Source of the values: patent publication US11000568B2, “Means and methods for treating copper-related diseases” (HELMHOLTZ ZENTRUM MÜNCHEN—DEUTSCHES FORSCHUNGSZENTRUM FÜR …, priority 2015, dated 2021).
